From ChEMBL document CHEMBL1142399, “Water-soluble pleuromutilin derivative with excellent in vitro and in vivo antibacterial activity against gram-positive pathogens” (J Med Chem, 2008) come the findings set out here.

The subject of assay [1] is Propionibacterium granulosum. Description: Antibacterial activity against Propionibacterium granulosum GAI 7414 by broth microdilution method. The note with it: Cutibacterium granulosum. It counts as functional. (Dilution methods test growth across graded concentrations, often in twofold steps.)
Assay [2] relates to Peptoniphilus asaccharolyticus. Description: Antibacterial activity against Peptostreptococcus asaccharolyticus GAI 5534 by broth microdilution method. It counts as functional.
Another assay deals with Cutibacterium acnes. Briefly: Antibacterial activity against Propionibacterium acnes GAI 5568 by broth microdilution method. The assay is classed as functional.
Another assay has as its system Finegoldia magna. Description: Antibacterial activity against Peptostreptococcus magnus GAI 5528 by broth microdilution method. It counts as functional.
Assay [3] relates to Peptostreptococcus anaerobius. Description: Antibacterial activity against Peptostreptococcus anaerobius GAI 5506 by broth microdilution method. It counts as functional.
In assay [4] the test system is Staphylococcus saccharolyticus. Briefly: Antibacterial activity against Staphylococcus saccharolyticus GAI 5520 by broth microdilution method. The assay is classed as functional.
In the next assay the test system is Atopobium parvulum. Briefly: Antibacterial activity against Atopobium parvulum GAI 5542 by broth microdilution method. It counts as functional. The note with it: Lancefieldella parvula.
Assay [5] deals with Streptococcus intermedius. Description: Antibacterial activity against Streptococcus intermedius GAI 7416 by broth microdilution method. The assay is classed as functional.
The subject of another assay is Clostridium perfringens. Briefly: Antibacterial activity against Clostridium perfringens GAI 5526 by broth microdilution method. It counts as functional.
In assay [6] the test system is Staphylococcus aureus. Briefly: Antibacterial activity against methicillin-susceptible Staphylococcus aureus Smith in po dosed mouse twice daily. The assay is classed as functional.
The subject of assay [7] is Staphylococcus aureus. Briefly: Antibacterial activity against methicillin-resistant Staphylococcus aureus KT0116 in mouse dosed twice iv 1 hr and 4 hrs after infection. It counts as functional.
The next assay deals with Enterococcus faecalis. Description: microbe, parasite or virus in culture. The note with it: ATCC 29212.
In a further assay the test system is Streptococcus pyogenes. Description: Antibacterial activity against Streptococcus pyogenes ATCC 12344 by broth microdilution method. It counts as functional.
The subject of assay [8] is Staphylococcus aureus. Description: Antibacterial activity against methicillin-susceptible Staphylococcus aureus Smith in mouse dosed twice iv 1 hr and 4 hrs after infection. It counts as functional.
Assay [9] has as its system Staphylococcus aureus. Briefly: microbe, parasite or virus in culture.
In assay [10] the test system is Enterococcus faecium. Description: Antibacterial activity against vancomycin-resistant Enterococcus faecium KU1778 clinical isolate by broth microdilution method. The assay is classed as functional.
Assay [11] has as its system Enterococcus faecium. Description: microbe, parasite or virus in culture. The note with it: ATCC 19434.
Another assay relates to Haemophilus influenzae. Description: Antibacterial activity against Haemophilus influenzae TH13 by broth microdilution method. The assay is classed as functional.
Assay [12] has as its system Staphylococcus aureus. Description: microbe, parasite or virus in culture. The source holds these as a separate data set.
Assay [13] concerns Staphylococcus aureus. Briefly: microbe, parasite or virus in culture. The note with it: Smith.
Assay [14] relates to Staphylococcus aureus. Description: microbe, parasite or virus in culture. The note with it: KMP9.
For assay [15], the system named is Staphylococcus epidermidis. Briefly: Antibacterial activity against Staphylococcus epidermidis ATCC 12228 by broth microdilution method. It counts as functional.
The subject of the next assay is Moraxella catarrhalis. Description: Antibacterial activity against Moraxella catarrhalis K1209 by broth microdilution method. It counts as functional.
For assay [16], the system named is Streptococcus pneumoniae. Description: Antibacterial activity against penicillin-susceptible Streptococcus pneumoniae ATCC 49619 in mouse dosed twice iv 1 hr and 4 hrs after infection. The assay is classed as functional. The note with it: ATCC 49619, iv.
In assay [17] the test system is Streptococcus pneumoniae. Description: Antibacterial activity against penicillin-resistant Streptococcus pneumoniae KT2524 in mouse dosed twice iv 1 hr and 4 hrs after infection. The assay is classed as functional.
In assay [18] the test system is Streptococcus pneumoniae. Description: microbe, parasite or virus in culture.
Assay [19] relates to Streptococcus pneumoniae. Briefly: microbe, parasite or virus in culture. The note with it: ATCC 49619.
Assay [20] has as its system Staphylococcus aureus. Briefly: Antibacterial activity against methicillin-resistant Staphylococcus aureus KT0116 in mouse dosed iv 1 hr after infection. The assay is classed as functional.
For assay [21], the system named is Staphylococcus aureus. Description: Antibacterial activity against methicillin-susceptible Staphylococcus aureus Smith in mouse dosed iv 1 hr after infection. It counts as functional.
The test system of assay [22] is Streptococcus pneumoniae. Description: Antibacterial activity against penicillin-susceptible Streptococcus pneumoniae ATCC 49619 in mouse dosed iv 1 hr after infection. It counts as functional. The note with it: ATCC 49619, iv.
Assay [23] concerns Streptococcus pneumoniae. Briefly: Antibacterial activity against penicillin-resistant Streptococcus pneumoniae KT2524 in mouse dosed iv 1 hr after infection. The assay is classed as functional.
Assay [24] relates to Mycoplasmoides pneumoniae. Briefly: Antibacterial activity against Mycoplasma pneumoniae Mac by broth microdilution method. The assay is classed as functional.
Assay [25] has as its system Mycoplasmoides pneumoniae. Briefly: Antibacterial activity against Mycoplasma pneumoniae FH Liu by broth microdilution method. It counts as functional.

Values after ≈ are worked out from the molar mass of the structure shown.

In general, ED50 refers to the dose at which the effect has come halfway, by size or by number of responders. The low end stands for an effect at a small dose, the high end for a need for a large dose.

With `CC1(C)S[C@@H]2[C@H](NC(=O)[C@H](N)c3ccccc3)C(=O)N2[C@H]1C(=O)O` [AMPICILLIN], the MIC in [1] came to 0.063 µg/mL (≈ 0.18 µM); in assay [2], 0.25 µg/mL (≈ 0.715 µM); against Cutibacterium acnes, 0.125 µg/mL (≈ 0.358 µM); against Finegoldia magna it was 0.25 µg/mL (≈ 0.715 µM); in assay [3], 0.125 µg/mL (≈ 0.358 µM); in assay [4], 0.008 µg/mL (≈ 0.0229 µM). Further, the MIC was 0.125 µg/mL (≈ 0.358 µM) against Atopobium parvulum, 0.125 µg/mL (≈ 0.358 µM) in [5] and 0.063 µg/mL (≈ 0.18 µM) in the assay on Clostridium perfringens.
With `CC[C@]1(C)C[C@@H](OC(=O)CSc2nnc(N)[nH]2)[C@]2(C)[C@H](C)CC[C@]3(CCC(=O)[C@H]32)[C@@H](C)[C@@H]1O` [AZAMULIN], the ED50 in the assay with Staphylococcus aureus [6] was determined as 13.3 mg/kg; with Staphylococcus aureus [7], 5.2 mg/kg; in the assay on Staphylococcus aureus [8], 6.88 mg/kg; in the assay with Streptococcus pneumoniae [16], 12.9 mg/kg; in the assay with Streptococcus pneumoniae [17] it was 17.7 mg/kg. Besides, the MIC was 128 µg/mL (≈ 267 µM) in the assay on Enterococcus faecalis; 0.25 µg/mL (≈ 0.522 µM) against Streptococcus pyogenes; 0.25 µg/mL (≈ 0.522 µM) in the assay on Staphylococcus aureus [9]; 0.25 µg/mL (≈ 0.522 µM) in the assay on Enterococcus faecium [10]; 0.5 µg/mL (≈ 1.04 µM) in the assay with Enterococcus faecium [11]; 0.5 µg/mL (≈ 1.04 µM) against Haemophilus influenzae. In addition, the MIC against Staphylococcus aureus [12] came out at 1 µg/mL (≈ 2.09 µM); against Staphylococcus aureus [13] it was 0.5 µg/mL (≈ 1.04 µM); in the assay with Staphylococcus aureus [14], 2 µg/mL (≈ 4.18 µM); in assay [15], 0.25 µg/mL (≈ 0.522 µM); against Moraxella catarrhalis it was 0.032 µg/mL (≈ 0.0669 µM); against Streptococcus pneumoniae [18], 0.5 µg/mL (≈ 1.04 µM). In the assay on Streptococcus pneumoniae [19], this compound returned an MIC of 0.5 µg/mL (≈ 1.04 µM).
Regarding `CO/N=C(\C(=O)N[C@@H]1C(=O)N2C(C(=O)O)=C(CSc3nc(=O)c(O)nn3C)CS[C@H]12)c1csc(N)n1` [CEFTRIAXONE], the MIC is 4 µg/mL (≈ 7.21 µM) with Enterococcus faecalis; 0.016 µg/mL (≈ 0.0289 µM) with Streptococcus pyogenes; 2 µg/mL (≈ 3.61 µM) in the assay on Staphylococcus aureus [9]; > 128 µg/mL with Enterococcus faecium [10]; 4 µg/mL (≈ 7.21 µM) with Enterococcus faecium [11]; 0.008 µg/mL (≈ 0.0144 µM) against Haemophilus influenzae. In addition, the MIC with Staphylococcus aureus [12] was > 128 µg/mL; against Staphylococcus aureus [13], 2 µg/mL (≈ 3.61 µM); against Staphylococcus aureus [14] it was > 128 µg/mL; in [15] it was 2 µg/mL (≈ 3.61 µM); with Moraxella catarrhalis, 0.25 µg/mL (≈ 0.451 µM); against Streptococcus pneumoniae [18] it was 0.5 µg/mL (≈ 0.902 µM). This compound also showed an MIC against Streptococcus pneumoniae [19] of 0.063 µg/mL (≈ 0.114 µM). Further, the median effective dose (ED50) was > 100 mg/kg in the assay with Staphylococcus aureus [20], 3.72 mg/kg in the assay with Staphylococcus aureus [21], 0.22 mg/kg in the assay on Streptococcus pneumoniae [22] and 27.5 mg/kg with Streptococcus pneumoniae [23].
For the compound `CC[C@H]1OC(=O)[C@H](C)[C@@H](O[C@H]2C[C@@](C)(OC)[C@@H](O)[C@H](C)O2)[C@H](C)[C@@H](O[C@@H]2O[C@H](C)C[C@H](N(C)C)[C@H]2O)[C@](C)(OC)C[C@@H](C)C(=O)[C@H](C)[C@@H](O)[C@]1(C)O` [CLARITHROMYCIN], the MIC in assay [1] was < 0.004 µg/mL; in assay [2] it was > 128 µg/mL; in the assay with Cutibacterium acnes, < 0.004 µg/mL; in the assay with Finegoldia magna it was 2 µg/mL (≈ 2.67 µM); in assay [3], < 0.004 µg/mL; in assay [4], 0.063 µg/mL (≈ 0.0842 µM). The MIC with Atopobium parvulum was < 0.004 µg/mL; in [5], < 0.004 µg/mL; in assay [24], 0.016 µg/mL (≈ 0.0214 µM); with Clostridium perfringens, 1 µg/mL (≈ 1.34 µM); in assay [25], 0.016 µg/mL (≈ 0.0214 µM).
